Where a name gives a salt, the structure may show the parent alone.

The source of these data is US11780830B2, “Triazolone derivatives or salts thereof and pharmaceutical compositions comprising the same” (YUHAN CORPORATION, priority 2018, dated 2023).

Holding throughout (type): biochemical
In experiment [1] the target is T1, recombinant human MAO-B (monoamine oxidase-B) (Homo sapiens, UniProt P27338).
T1 construct: purchased Sigma-Aldrich
T1 sequence (P27338 1-520): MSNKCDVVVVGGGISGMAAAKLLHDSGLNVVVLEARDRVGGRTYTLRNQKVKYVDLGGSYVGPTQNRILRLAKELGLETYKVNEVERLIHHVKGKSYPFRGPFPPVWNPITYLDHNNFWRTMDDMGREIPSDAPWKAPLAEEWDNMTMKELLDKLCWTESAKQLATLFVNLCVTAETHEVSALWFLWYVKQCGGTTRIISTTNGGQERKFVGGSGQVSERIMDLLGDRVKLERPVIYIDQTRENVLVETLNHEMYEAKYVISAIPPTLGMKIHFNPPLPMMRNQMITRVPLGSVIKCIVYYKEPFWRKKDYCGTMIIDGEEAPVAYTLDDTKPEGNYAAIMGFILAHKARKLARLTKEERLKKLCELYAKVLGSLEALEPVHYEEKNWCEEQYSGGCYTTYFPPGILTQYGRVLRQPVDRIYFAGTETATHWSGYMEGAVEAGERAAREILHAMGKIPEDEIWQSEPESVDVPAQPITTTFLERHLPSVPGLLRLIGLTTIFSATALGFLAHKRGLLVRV
The experiment in a line: Activity on recombinant human MAO-B, method similar to the VAP-1 assay. As to conditions: substrate 1 mM benzylamine; read-out: Inhibitory Activity (IC50, nM) MAO-B. In a few lines: (§1)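 Enzyme preincubated with compound 30 min at 37 °C in 50 mM sodium phosphate pH 7.4, final DMSO below 1%. Substrate was 0.5 mM tyramine for MAO-A and 1 mM benzylamine for MAO-B, with 200 uM Amplex Red and 1 U/mL HRP. H2O2-coupled resorufin fluorescence (ex 544/em 590) followed over 1–2 h; 8-point 4-parameter IC50.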

Experiment [2] deals with T2, recombinant human VAP-1 (Homo sapiens, UniProt Q16853).
T2 construct: purchased R&D systems
T2 sequence (Q16853 1-763): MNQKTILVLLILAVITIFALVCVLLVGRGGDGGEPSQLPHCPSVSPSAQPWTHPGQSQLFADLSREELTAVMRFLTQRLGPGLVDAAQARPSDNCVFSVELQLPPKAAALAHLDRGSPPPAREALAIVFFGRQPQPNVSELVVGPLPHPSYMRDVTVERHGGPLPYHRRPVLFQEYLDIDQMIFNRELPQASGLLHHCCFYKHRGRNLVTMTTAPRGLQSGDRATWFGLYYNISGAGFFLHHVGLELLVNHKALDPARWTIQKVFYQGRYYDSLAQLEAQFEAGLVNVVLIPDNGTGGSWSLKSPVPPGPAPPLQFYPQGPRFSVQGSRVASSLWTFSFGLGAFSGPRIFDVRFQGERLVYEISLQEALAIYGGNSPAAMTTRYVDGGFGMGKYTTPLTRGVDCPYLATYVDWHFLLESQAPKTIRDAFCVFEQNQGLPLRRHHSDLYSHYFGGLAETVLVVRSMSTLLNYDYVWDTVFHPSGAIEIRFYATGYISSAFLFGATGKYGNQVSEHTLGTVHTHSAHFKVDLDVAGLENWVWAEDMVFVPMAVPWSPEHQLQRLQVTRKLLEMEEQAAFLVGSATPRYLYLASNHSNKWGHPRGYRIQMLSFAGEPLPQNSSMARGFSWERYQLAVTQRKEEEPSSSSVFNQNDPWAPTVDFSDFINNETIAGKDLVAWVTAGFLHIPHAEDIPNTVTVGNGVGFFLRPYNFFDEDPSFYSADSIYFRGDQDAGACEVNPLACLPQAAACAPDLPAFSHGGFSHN
Description: Activity on recombinant human VAP-1, HRP-coupled Amplex Red hydrogen peroxide assay. As to conditions: substrate 1 mM benzylamine; compound incubated with enzyme at 37° C. for 30 minutes; pH 7.4; read-out: Inhibitory Activity (IC50, nM) human VAP-1. In a few lines:
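Enzyme in 50 mM sodium phosphate pH 7.4 preincubated with compound 30 min at 37 °C, then 1 mM benzylamine, 200 µM Amplex Red and 1 U/mL HRP added. H2O2-derived resorufin fluorescence (ex 544/em 590 nm) followed over 1–2 h; signal-rate decrease versus DMSO control, 8-point curve, four-parameter logistic IC50.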

Experiment [3] addresses T3, recombinant human MAO-A (monoamine oxidase-A) (Homo sapiens, UniProt P21397).
T3 construct: purchased Sigma-Aldrich
T3 sequence (P21397 1-527): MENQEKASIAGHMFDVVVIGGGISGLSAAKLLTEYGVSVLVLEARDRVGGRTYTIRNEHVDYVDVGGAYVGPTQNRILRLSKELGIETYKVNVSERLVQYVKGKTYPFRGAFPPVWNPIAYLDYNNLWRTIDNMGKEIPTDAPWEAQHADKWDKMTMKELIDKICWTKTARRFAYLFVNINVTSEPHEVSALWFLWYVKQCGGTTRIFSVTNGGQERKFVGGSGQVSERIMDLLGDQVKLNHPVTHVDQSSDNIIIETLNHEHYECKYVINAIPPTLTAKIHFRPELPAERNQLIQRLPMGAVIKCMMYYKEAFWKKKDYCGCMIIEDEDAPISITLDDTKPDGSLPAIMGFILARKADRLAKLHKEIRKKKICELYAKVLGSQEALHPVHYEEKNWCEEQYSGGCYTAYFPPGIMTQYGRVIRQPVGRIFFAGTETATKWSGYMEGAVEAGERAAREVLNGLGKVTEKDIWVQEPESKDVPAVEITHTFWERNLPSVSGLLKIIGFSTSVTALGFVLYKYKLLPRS
Description: Activity on recombinant human MAO-A, method similar to the VAP-1 assay. As to conditions: substrate 0.5 mM tyramine; read-out: Inhibitory Activity (IC50, nM) MAO-A. In a few lines:
as §1

Experiment [4] addresses T4, recombinant human DAO (diamine oxidase) (Homo sapiens, UniProt P19801).
T4 construct: purchased R&D systems
T4 sequence (P19801 20-751): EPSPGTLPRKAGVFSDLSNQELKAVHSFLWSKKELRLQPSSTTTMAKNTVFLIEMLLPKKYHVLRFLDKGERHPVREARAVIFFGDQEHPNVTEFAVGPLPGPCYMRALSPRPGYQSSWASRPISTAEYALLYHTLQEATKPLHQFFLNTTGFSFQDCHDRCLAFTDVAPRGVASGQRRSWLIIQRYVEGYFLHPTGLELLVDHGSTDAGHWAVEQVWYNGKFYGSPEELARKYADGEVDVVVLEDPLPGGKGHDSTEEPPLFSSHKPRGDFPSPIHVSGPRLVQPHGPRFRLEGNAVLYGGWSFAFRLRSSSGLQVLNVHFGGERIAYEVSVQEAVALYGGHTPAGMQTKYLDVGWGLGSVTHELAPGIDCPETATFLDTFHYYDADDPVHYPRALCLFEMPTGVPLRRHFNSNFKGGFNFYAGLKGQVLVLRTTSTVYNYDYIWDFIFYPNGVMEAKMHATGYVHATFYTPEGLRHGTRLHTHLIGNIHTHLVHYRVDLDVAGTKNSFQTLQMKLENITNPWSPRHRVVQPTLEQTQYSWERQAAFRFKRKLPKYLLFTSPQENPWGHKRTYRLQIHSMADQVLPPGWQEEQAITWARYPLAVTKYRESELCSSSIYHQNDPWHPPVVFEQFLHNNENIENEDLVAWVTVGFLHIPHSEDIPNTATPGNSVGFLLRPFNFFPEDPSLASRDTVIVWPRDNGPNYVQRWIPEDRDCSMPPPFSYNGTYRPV
Description: Activity on recombinant human DAO, method similar to the VAP-1 assay. As to conditions: substrate 1 mM putrescine; read-out: Inhibitory Activity (IC50, nM) DAO. In a few lines:
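Inhibition of recombinant human diamine oxidase (DAO, R&D systems) was assessed by the same approach as the VAP-1 assay, using 1 mM putrescine as substrate. Hydrogen peroxide formed was detected through an HRP-coupled Amplex Red reaction yielding fluorescent resorufin, read at 544 nm excitation and 590 nm emission. IC50 values came from four-parameter logistic fitting in GraphPad Prism.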

The term IC50 denotes the concentration that gives 50% inhibition. On to `CN(C)c1cc(-c2ccc(Cn3cnn(C/C(=C/F)CN)c3=O)s2)ccc1F` [Example 6, 2-[(2E)-2-(aminomethyl)-3-fluoroprop-2-en-1-yl]-4-(5-[3-(dimethylamino)-4-fluorophenyl]thiophen-2-ylmethyl)-2,4-dihydro-3H-1,2,4-triazol-3-one hydrochloride], for which the IC50 is 70 nM in experiment [1], 3.4 nM in experiment [2], above 100000 nM in experiment [3] and 2900 nM in experiment [4].
In the case of `CC(C)c1nc(-c2ccc(-c3ccc(Cn4cnn(C/C(=C/F)CN)c4=O)s3)cc2)no1` [Example 37, 2-[(2E)-2-(aminomethyl)-3-fluoroprop-2-en-1-yl]-4-[(5-4-[5-(propan-2-yl)-1,2,4-oxadiazol-3-yl]phenylthiophen-2-yl)methyl]-2,4-dihydro-3H-1,2,4-triazol-3-one hydrochloride], the IC50 in experiment [1] came out at 590 nM; in experiment [2] it was 0.76 nM; in experiment [3], 5590 nM; in experiment [4], 120 nM.
Regarding `NC/C(=C\F)Cn1ncn(Cc2ccc(C#Cc3cnc4c(c3)OCC(=O)N4)s2)c1=O` [Example 139, 7-[2-[5-[[1-[(E)-2-(aminomethyl)-3-fluoro-allyl]-5-oxo-1,2,4-triazol-4-yl]methyl]-2-thienyl]ethynyl]-4H-pyrido[3,2-b][1,4]oxazin-3-one hydrochloride], the IC50 in experiment [1] was 73 nM; in experiment [2] it was 0.5 nM; in experiment [3] it was above 100000 nM; in experiment [4], 290 nM.
For the compound `CS(=O)(=O)c1ccc(-c2ccc(CCn3cnn(C/C(=C/F)CN)c3=O)s2)cc1` [Example 216, 2-[(2E)-2-(aminomethyl)-3-fluoroprop-2-en-1-yl]-4-(2-{5-[4-(methylsulfonyl)phenyl]thiophen-2-yl}ethyl)-2,4-dihydro-3H-1,2,4-triazol-3-one], the concentration for half-maximal inhibition (IC50) is 37000 nM in experiment [1], 0.5 nM in experiment [2], above 100000 nM in experiment [3] and 68 nM in experiment [4].
On the same counts, the results for `NC/C(=C\F)Cn1ncn(Cc2ccc(C#Cc3cnc4c(c3)OCCN4)s2)c1=O` [Example 137, 2-[(E)-2-(aminomethyl)-3-fluoro-allyl]-4-[[5-[2-(3,4-dihydro-2H-pyrido[3,2-b][1,4]oxazin-7-yl)ethynyl]-2-thienyl]methyl]-1,2,4-triazol-3-one] are 390 nM, 1.4 nM, above 100000 nM and 1400 nM.
Regarding `NC/C(=C\F)Cn1ncn(Cc2ccc(-c3cc(F)c4c(c3)CCC(=O)N4)s2)c1=O` [Example 80, 6-[5-[[1-[(E)-2-(aminomethyl)-3-fluoro-allyl]-5-oxo-1,2,4-triazol-4-yl]methyl]-2-thienyl]-8-fluoro-3,4-dihydro-1H-quinolin-2-one], the IC50 in experiment [1] was 6300 nM; in experiment [2], 0.2 nM; in experiment [3], above 100000 nM; in experiment [4], 380 nM.
Taken in the same sequence, the figures for `Cc1cc(-c2ccc(Cn3cnn(C/C(=C/F)CN)c3=O)s2)cc2c1NC(=O)CC2` [Example 77, 6-[5-(1-[(2E)-2-(aminomethyl)-3-fluoroprop-2-en-1-yl]-5-oxo-1,5-dihydro-4H-1,2,4-triazol-4-ylmethyl)thiophen-2-yl]-8-methyl-3,4-dihydroquinolin-2(1H)-one hydrochloride] were 1300 nM, 0.2 nM, above 100000 nM and 460 nM.
With `NC/C(=C\F)Cn1ncn(Cc2ccc(-c3cccc4ncccc34)s2)c1=O` [Example 113, 2-[(2E)-2-(aminomethyl)-3-fluoroprop-2-en-1-yl]-4-[5-(quinolin-5-yl)thiophen-2-yl]methyl-2,4-dihydro-3H-1,2,4-triazol-3-one hydrochloride], the IC50 in experiment [1] is 160 nM; in experiment [2], 0.8 nM; in experiment [3], above 100000 nM; in experiment [4], 340 nM.
On the same counts, the results for `NC/C(=C\F)Cn1ncn(Cc2ccc(-c3ccc(C(=O)N4CCOCC4)cc3)s2)c1=O` [Example 27, 2-[(2E)-2-(aminomethyl)-3-fluoroprop-2-en-1-yl]-4-(5-[4-(morpholin-4-ylcarbonyl)phenyl]thiophen-2-ylmethyl)-2,4-dihydro-3H-1,2,4-triazol-3-one hydrochloride] are 18000 nM, 1.1 nM, above 100000 nM and 470 nM.
For the compound `Cc1cc(-c2ccc(Cn3cnn(C/C(=C/F)CN)c3=O)s2)cnc1N1CCOCC1` [Example 172, 2-[(2E)-2-(aminomethyl)-3-fluoroprop-2-en-1-yl]-4-({5-[5-methyl-6-(morpholin-4-yl)pyridin-3-yl]thiophen-2-yl}methyl)-2,4-dihydro-3H-1,2,4-triazol-3-one], the half-inhibitory concentration (IC50) in experiment [1] is 3900 nM; in experiment [2], 2.8 nM; in experiment [3], above 100000 nM; in experiment [4], 490 nM.
